Values quoted from earlier work, collected in patent US8614057B2, “Methods for collecting and detecting oligonucleotides” (The Invention Science Fund I, LLC, priority 2008, dated 2013).
Like-named read-outs stand apart in the source and are kept apart here.

Key:
[1] = subcutaneous; 40, 8, and 1.6 μg injections once daily over 35 days
[2] = target: T1, RNAse A (Bos taurus, UniProt P61823)
T1 sequence (P61823 27-150): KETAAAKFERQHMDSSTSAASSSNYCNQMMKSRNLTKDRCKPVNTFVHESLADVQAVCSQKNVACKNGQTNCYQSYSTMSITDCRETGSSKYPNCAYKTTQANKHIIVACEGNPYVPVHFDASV

[3] = target: RNase-2 (eosinophil derived neurotoxin) (Homo sapiens, UniProt P10153)
[4] = target: T2, RNase-4 (Homo sapiens, UniProt P34096)
T2 sequence (P34096 29-147): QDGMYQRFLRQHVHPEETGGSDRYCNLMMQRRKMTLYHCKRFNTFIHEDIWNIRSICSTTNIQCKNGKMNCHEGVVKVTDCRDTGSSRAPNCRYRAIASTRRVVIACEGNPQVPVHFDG

[5] = in humans
[6] = target: T1, RNAse A; conditions: RNAse A catalysis

Chain of RNase-2 (eosinophil derived neurotoxin) (P10153 28-161): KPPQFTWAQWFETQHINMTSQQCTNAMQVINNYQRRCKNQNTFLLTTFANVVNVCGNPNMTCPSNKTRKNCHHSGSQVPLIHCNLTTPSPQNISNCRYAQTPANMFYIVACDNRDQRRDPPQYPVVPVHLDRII

Nc1ccc(N=Nc2ccc(-c3ccc(O)cc3)cc2)c2ccc(S(=O)(=O)O)cc12 [8-amino-5-(4′-hydroxylbiphenyl-4-ylazo)naphthalene-2-sulfonate]
toxicity to the animals [1]: without overt toxicity

Nc1ncnc2c1ncn2C1OC(COP(=O)(O)OP(=O)(O)OC2CC(n3ccc(=O)[nH]c3=O)OC2COP(=O)(O)O)C(OP(=O)(O)O)C1O (centres unmarked) [pdUppAp, 5′-phosphor-2′-deoxyuridine 3′-pyrophosphate, P′-P5-ester with adenosine 3′-phosphate]
Ki ([2]; pH 5.9): 27 nM
Ki ([2]; pH 7.0): 240 nM
inhibition of RNase-2 activity [3]: inhibits the activity
inhibition of RNase-4 activity [4]: inhibits the activity

Etanercept
half-life [5]: 70 h

oligo(vinylsulfonic acid)
Ki ([6]; 0 mM sodium chloride end of the range 0 to 100 mM, read-out: inhibition constant (Ki), lower end of reported range): ~0.01 nM
Ki ([6]; 100 mM sodium chloride end of the range 0 to 100 mM, read-out: inhibition constant (Ki), upper end of reported range): ~120 nM
